Experimental data from US20260125374A1, “PI3K-ALPHA INHIBITORS AND METHODS OF MAKING AND USING THE SAME” (Relay Therapeutics, Inc., priority 2021, published 2026).
“Also recorded” adds a separate entry of the source.

Key:
Type in all cases: physicochemical
[1] = Salt screening (XRPD, chiral purity of hits); settings: for Chiral purity (by HPLC) / Crystallinity (By XRPD): crystalline hits of salt screening
Procedure: Based on the pKa of I-1 free form, 23 counter ions were selected as salt/cocrystal forming agents. Methanol, acetone and isopropyl acetate were used as screening solvents. 1.0 equivalent of selected counter ions/coformers was applied for salt screening. Slurry equilibration, slow evaporation and anti-solvent addition were used as crystallization methods. In total, about 70 screening experiments were conducted.
About 50 mg of I-1 Form A were added to a suitable amount of solvent and 1.0 equivalent of counter ions were added under stirring at 50° C. for 2 hours and then at 25° C. for at least 12 hours. MeOH, acetone and IPAc were used as screening solvents.
Obtained suspensions were taken out and centrifuged. Solids obtained were analyzed by XRPD and salt screening results were summarized in Table 5.1, Table 5.2, and Table 5.3.

[2] = Hygroscopicity by DVS
Procedure: • Method 1 (for I-1 Form A and I-3 Form A) • Instrument Intrinsic, Advantage or Adventure • Total gas flow 200 sccm • Oven temperature 25° C. • Solvent Water • Method Cycle: 40-0-95-0-40% RH • Stage Step: 10% • Equilibrium: 0.002 dm/dt (%/min) • Minimum dm/dt stability duration: 60 min • Maximum dm/dt stage time: 360 min • Method 2 (for I-4 Form A) • Instrument Intrinsic, Advantage or Adventure • Total gas flow 200 sccm • Oven temperature 25° C. • Solvent Water • Method Cycle: 40-95-0-95-40% RH • Stage Step: 10% • Equilibrium: 0.002 dm/dt (%/min) • Minimum dm/dt stability duration: 60 min • Maximum dm/dt stage time: 360 min
I-1 Form A is hygroscopic. It absorbs about 5.5% water by weight from 40% RH to 95% RH. […] It absorbs about 40% water by weight from 40% RH to 95% RH. Form changed after the DVS test. […] It starts to absorb water when RH>40% and potential hydrate form generates at high humidity based on DVS data. The sorption and desorption are reversible.
Water sorption and desorption behavior of I-1 Form A, I-3 Form A, and I-4 Form A was investigated by DVS at 25° C. with a cycle of 40-0-95-0-40% RH, dm/dt 0.002, min. equilibration time 60 min and max. equilibration time 360 min. XRPD was measured after the DVS test to determine form change.

[3] = Bulk stability (1 week); set-up: key to CL (color): A: No change of color; B: Slight discoloration; C: Medium discoloration; D: Strong discoloration; DC: complete decomposition; settings: for bulk stability (chemical and physical): 25° C./92% RH open, 40° C./75% RH open, 60° C. tight container; for bulk stability (chemical and physical) / CL (color) / Bulk (HPLC) chiral purity / Bulk (HPLC) purity / Bulk (XRPD): 1 week; for CL (color) / Bulk (HPLC) chiral purity / Bulk (HPLC) purity / Bulk (XRPD): Solid state; for Chiral purity (initial) / Initial purity by HPLC: before storage
Procedure: Bulk stability of I-1 Form A and the 2 salt candidates was investigated at 25° C./92% RH in an open container, at 40° C./75% RH in an open container and at 60° C. in a tight container over 1 week. […] All the 3 salts show no obvious racemization based on chiral purity results.
I-1 Form A and the 2 salts were placed at 25° C./92% RH in an open container, at 40° C./75% RH in an open container and at 60° C. in a closed container for I week. Samples after I week were characterized by XRPD and HPLC and inspected for color change.

[4] = DVS 25° C., 0% RH, listed as I-3 Form A
[5] = DVS 25° C., 10% RH, listed as I-3 Form A
[6] = DVS 25° C., 20% RH, listed as I-3 Form A
[7] = DVS 25° C., 30% RH, listed as I-3 Form A
[8] = DVS 25° C., 40% RH, listed as I-3 Form A
[9] = DVS 25° C., 50% RH, listed as I-3 Form A
[10] = DVS 25° C., 60% RH, listed as I-3 Form A
[11] = DVS 25° C., 70% RH, listed as I-3 Form A
[12] = DVS 25° C., 80% RH, listed as I-3 Form A
[13] = DVS 25° C., 90% RH, listed as I-3 Form A
[14] = DVS 25° C., 95% RH, listed as I-3 Form A
[15] = Salt candidates risk matrix (summary)
[16] = 25° C./92% RH, open container, listed as I-3 Form A
[17] = 40° C./75% RH, open container, listed as I-3 Form A
[18] = 60° C., tight container, listed as I-3 Form A
[19] = DVS 25° C., 0% RH, listed as I-4 Form A
[20] = DVS 25° C., 10% RH, listed as I-4 Form A
[21] = DVS 25° C., 20% RH, listed as I-4 Form A
[22] = DVS 25° C., 30% RH, listed as I-4 Form A
[23] = DVS 25° C., 40% RH, listed as I-4 Form A
[24] = DVS 25° C., 50% RH, listed as I-4 Form A
[25] = DVS 25° C., 60% RH, listed as I-4 Form A
[26] = DVS 25° C., 70% RH, listed as I-4 Form A
[27] = DVS 25° C., 80% RH, listed as I-4 Form A
[28] = DVS 25° C., 90% RH, listed as I-4 Form A
[29] = DVS 25° C., 95% RH, listed as I-4 Form A
[30] = 25° C./92% RH, open container, listed as I-4 Form A
[31] = 40° C./75% RH, open container, listed as I-4 Form A
[32] = 60° C., tight container, listed as I-4 Form A

## N#Cc1c(-c2cc(NC(=O)c3cc(F)cc(C(F)(F)F)c3)c3c(c2)C(=O)N[C@H]3c2cc(F)ccc2Cl)ccc2ncnn12 [Compound I-3]
[1]; 1.0 equiv. p-toluenesulfonic acid, Acetone
  Salt screening result (slurry crystallization): + (I-3 Form A) (Salt hits)
[1]; 1.0 equiv. p-toluenesulfonic acid, Isopropyl acetate
  Salt screening result (slurry crystallization): + (I-3 Form A) (Salt hits)
[1]; 1.0 equiv. p-toluenesulfonic acid, MeOH
  Salt screening result (slurry crystallization): + (I-3 Form A) (Salt hits)
[1]; MeOH, acetone and IPAc, acetone
  chiral stability in salt screening and scale up solvents: good chiral stability
[1]; listed as I-3 Form A
  Chiral purity (by HPLC): 99.8%
  Crystallinity (By XRPD): High
[1]; slurry, 1.0 equiv. p-toluenesulfonic acid, Acetone
  Chiral purity of salt screening solid: Chiral purity: 99.8%
[2]; [4]
  1st Desorp. (%): 0.05%
  1st Sorp. (%): 0.05%
  2nd Desorp. (%): 0.00%
  2nd Sorp. (%): 0.00%
[2]; DVS 25° C., 10% RH
  2nd Desorp. (%): 0.11%
[2]; [5]
  1st Desorp. (%): 0.16%
  1st Sorp. (%): 0.15%
  2nd Sorp. (%): 0.10%
[2]; [6]
  1st Desorp. (%): 0.27%
  1st Sorp. (%): 0.26%
  2nd Desorp. (%): 0.22%
  2nd Sorp. (%): 0.21%
[2]; [7]
  1st Desorp. (%): 0.40%
  1st Sorp. (%): 0.38%
  2nd Desorp. (%): 0.37%
  2nd Sorp. (%): 0.35%
[2]; [8]
  1st Desorp. (%): 0.69%
  1st Sorp. (%): 0.67%
  2nd Desorp. (%): 2.11%
  2nd Sorp. (%): 0.81%
[2]; [9]
  1st Sorp. (%): 2.34%
  2nd Desorp. (%): 2.44%
[2]; [10]
  1st Sorp. (%): 2.53%
  2nd Desorp. (%): 2.64%
[2]; [11]
  1st Sorp. (%): 2.84%
  2nd Desorp. (%): 4.17%
[2]; [12]
  1st Sorp. (%): 4.29%
  2nd Desorp. (%): 4.45%
[2]; [13]
  1st Sorp. (%): 4.64%
  2nd Desorp. (%): 4.76%
[2]; [14]
  1st Sorp. (%): 5.36%
  2nd Desorp. (%): 5.36%
[2]; listed as I-3 Form A
  form after the DVS test (XRPD): still I-3 Form A
[3]; listed as I-3 Form A
  bulk stability (chemical and physical): chemically and physically stable; also recorded: chemically stable and shows no XRPD change; also recorded: good chemical and physical bulk stability
  Chiral purity (initial): 98.6%
  Initial purity by HPLC: 99.5%
[3]; [15]
  Chemical stability: Stable
  Physical stability: Stable
[3]; 25° C./92% RH, open container
  CL (color): A
[3]; [16]
  Bulk (HPLC) chiral purity: 98.3%
  Bulk (HPLC) purity: 99.4%/
  Bulk (XRPD): No form change*
[3]; 40° C./75% RH, open container
  CL (color): A
[3]; [17]
  Bulk (HPLC) chiral purity: 98.5%
  Bulk (HPLC) purity: 99.3%/
  Bulk (XRPD): No form change*
[3]; 60° C., tight container
  Bulk (XRPD): No form change
  CL (color): A
[3]; [18]
  Bulk (HPLC) chiral purity: 98.3%
  Bulk (HPLC) purity: 99.5%/

## N#Cc1c(-c2cc(NC(=O)c3cc(F)cc(C(F)(F)F)c3)c3c(c2)C(=O)N[C@H]3c2cc(F)ccc2Cl)ccc2ncnn12 [Compound I-4]
[1]; 1.0 equiv. methanesulfonic acid, Acetone/MTBE
  Salt screening result (anti-solvent): + (I-4 Form A) (Salt hits)
[1]; anti-solvent, 1.0 equiv. methanesulfonic acid, Acetone/MTBE
  Chiral purity of salt screening solid: Chiral purity: 98.3%
[1]; listed as I-4 Form A
  Chiral purity (by HPLC): 98.3%
  Crystallinity (By XRPD): Low
[2]; [19]
  1st Desorp. (%): 0.01%
  2nd Sorp. (%): 0.01%
[2]; [20]
  1st Desorp. (%): 1.52%
  2nd Sorp. (%): 0.98%
[2]; [21]
  1st Desorp. (%): 2.78%
  2nd Sorp. (%): 1.76%
[2]; [22]
  1st Desorp. (%): 3.61%
  2nd Sorp. (%): 2.64%
[2]; [23]
  1st Desorp. (%): 4.52%
  1st Sorp. (%): 1.62%
  2nd Desorp. (%): 4.51%
  2nd Sorp. (%): 3.57%
[2]; DVS 25° C., 50% RH
  1st Desorp. (%): 5.78%
  2nd Sorp. (%): 4.63%
[2]; [24]
  1st Sorp. (%): 3.50%
  2nd Desorp. (%): 5.71%
[2]; DVS 25° C., 60% RH
  1st Desorp. (%): 7.60%
  2nd Sorp. (%): 6.22%
[2]; [25]
  1st Sorp. (%): 4.75%
  2nd Desorp. (%): 7.44%
[2]; DVS 25° C., 70% RH
  1st Desorp. (%): 11.14%
  2nd Sorp. (%): 9.34%
[2]; [26]
  1st Sorp. (%): 6.87%
  2nd Desorp. (%): 10.54%
[2]; DVS 25° C., 80% RH
  1st Desorp. (%): 16.84%
  2nd Sorp. (%): 15.03%
[2]; [27]
  1st Sorp. (%): 12.16%
  2nd Desorp. (%): 17.11%
[2]; DVS 25° C., 90% RH
  1st Desorp. (%): 31.04%
  2nd Sorp. (%): 27.39%
[2]; [28]
  1st Sorp. (%): 25.12%
  2nd Desorp. (%): 32.94%
[2]; DVS 25° C., 95% RH
  1st Desorp. (%): 42.35%
  2nd Sorp. (%): 44.74%
[2]; [29]
  1st Sorp. (%): 42.35%
  2nd Desorp. (%): 44.74%
[2]; DVS 25° C., cycle 40-0-95-0-40% RH, listed as I-4 Form A
  XRPD after DVS test: Form changed
[2]; DVS at 25° C., listed as I-4 Form A
  hygroscopicity: very hygroscopic
[2]; from 40% RH to 95% RH, 25° C., listed as I-4 Form A
  water absorbed: about 40 % water by weight
[2]; listed as I-4 Form A
  form after the DVS test (XRPD): Form changed
[3]; listed as I-4 Form A
  bulk stability (chemical and physical): chemically stable but physically unstable at 25° C./92% RH and 40° C./75% RH
  Chiral purity (initial): 99.5%
  Initial purity by HPLC: 99.6%
[3]; [30]
  Bulk (HPLC) chiral purity: 98.3%
  Bulk (HPLC) purity: 99.4%/
  Bulk (XRPD): Form changed
[3]; [31]
  Bulk (HPLC) chiral purity: 99.1%
  Bulk (HPLC) purity: 99.0%/
  Bulk (XRPD): Form changed
[3]; [32]
  Bulk (HPLC) chiral purity: 99.2%
  Bulk (HPLC) purity: 99.5%/
